According to article PMC8703412 (Pharmaceuticals, 2021):
Values after ≈ are worked out from the molar mass of the structure shown. Like-named read-outs stand apart in the source and are kept apart here.

Experiments:
[1] = Cytotoxicity, CellTiter 96 (MTS) assay; details: human, Cytotoxicity for HepG2 cells, IC50, 24 h incubation, 1–1000 µM
[2] = tested on: Mycobacterium tuberculosis strain 331/88 (i.e., H37Rv); test: MIC micromethod in Šula's medium, drug-susceptible Mtb.; format: cell-based
[3] = tested on: Mycobacterium avium 330/88; test: MIC micromethod in Šula's medium, M. avium; format: cell-based
[4] = tested on: Mycobacterium kansasii 6509/96 (clinical isolate); test: MIC micromethod in Šula's medium, M. kansasii; format: cell-based; details: Mycobacterium kansasii
[5] = Mycobacterium tuberculosis, H37RV, 336 h, 14 d incubation, esters, Table 1, read-out: MIC Mtb. 331/88 14 d
[6] = Mycobacterium tuberculosis, H37RV, 504 h, 21 d incubation, esters, Table 1, read-out: MIC Mtb. 331/88 21 d
[7] = Mycobacterium avium, 330/88, 336 h, 14 d incubation, Table 1, read-out: MIC M. avium 330/88 14 d
[8] = Mycobacterium avium, 330/88, 504 h, 21 d incubation, Table 1, read-out: MIC M. avium 330/88 21 d
[9] = 168 h, 7 d incubation, Table 1, read-out: MIC M. kansasii 6509/96 7 d
[10] = 336 h, 14 d incubation, Table 1, read-out: MIC M. kansasii 6509/96 14 d
[11] = 504 h, 21 d incubation, Table 1, read-out: MIC M. kansasii 6509/96 21 d
[12] = Mycobacterium tuberculosis, H37RV, 336 h, 14 d incubation, precursors, Table 2, read-out: MIC Mtb. 331/88 14 d
[13] = Mycobacterium tuberculosis, H37RV, 504 h, 21 d incubation, precursors, Table 2, read-out: MIC Mtb. 331/88 21 d
[14] = Mycobacterium avium, 330/88, 336 h, 14 d incubation, precursors, Table 2, read-out: MIC M. avium 330/88 14 d
[15] = Mycobacterium avium, 330/88, 504 h, 21 d incubation, precursors, Table 2, read-out: MIC M. avium 330/88 21 d
[16] = 168 h, 7 d incubation, precursors, Table 2, read-out: MIC M. kansasii 6509/96 7 d
[17] = 336 h, 14 d incubation, precursors, Table 2, read-out: MIC M. kansasii 6509/96 14 d
[18] = 504 h, 21 d incubation, precursors, Table 2, read-out: MIC M. kansasii 6509/96 21 d
[19] = Mycobacterium avium, 330/88, 336 h, read-out: MIC M. avium 330/88 14 d
[20] = Mycobacterium avium, 330/88, 504 h, read-out: MIC M. avium 330/88 21 d
[21] = 168 h, read-out: MIC M. kansasii 6509/96 7 d
[22] = 336 h, read-out: MIC M. kansasii 6509/96 14 d
[23] = 504 h, read-out: MIC M. kansasii 6509/96 21 d

C/C(=N\NC(=O)c1ccncc1)C(=O)OCCn1c([N+](=O)[O-])cnc1C [3q, 2-(2-Methyl-5-nitro-1H-imidazol-1-yl)ethyl (E)-2-(2 isonicotinoylhydrazineylidene)propanoate]
IC50 at 24 h [1]: > 1000 µM
MIC [2, 5]: 0.25 µM (≈ 0.0901 µg/mL)
MIC [2, 6]: 0.5 µM (≈ 0.18 µg/mL)
MIC [3, 7]: 500 µM (≈ 180 µg/mL)
MIC [3, 8]: 1000 µM (≈ 360 µg/mL)
melting point: 123 to 125.7 °C
MIC [4, 9]: 2 µM (≈ 0.721 µg/mL)
MIC [4, 10]: 4 µM (≈ 1.44 µg/mL)
MIC [4, 11]: 4 µM (≈ 1.44 µg/mL)

CCSC(=O)/C(C)=N/NC(=O)c1ccncc1 [3r, S-Ethyl (E)-2-(2-isonicotinoylhydrazineylidene)propanethioate]
IC50 at 24 h [1]: > 1000 µM
MIC [2, 5]: 0.25 µM (≈ 0.0628 µg/mL)
MIC [2, 6]: 0.25 µM (≈ 0.0628 µg/mL)
MIC [3, 7]: 250 µM (≈ 62.8 µg/mL)
MIC [3, 8]: 500 µM (≈ 126 µg/mL)
melting point: 158 to 160 °C
MIC [4, 9]: 1 µM (≈ 0.251 µg/mL)
MIC [4, 10]: 2 µM (≈ 0.503 µg/mL)
MIC [4, 11]: 4 µM (≈ 1.01 µg/mL)

C/C(=N\NC(=O)c1ccncc1)C(=O)Sc1ccccc1 [3s, S-Phenyl (E)-2-(2-isonicotinoylhydrazineylidene)propanethioate]
IC50 at 24 h [1]: 182 µM
MIC [2, 5]: 0.25 µM (≈ 0.0748 µg/mL)
MIC [2, 6]: 0.25 µM (≈ 0.0748 µg/mL)
MIC [3, 7]: 250 µM (≈ 74.8 µg/mL)
MIC [3, 8]: 250 µM (≈ 74.8 µg/mL)
melting point: 186 to 187 °C
MIC [4, 9]: 1 µM (≈ 0.299 µg/mL)
MIC [4, 10]: 2 µM (≈ 0.599 µg/mL)
MIC [4, 11]: 4 µM (≈ 1.2 µg/mL)

Oc1ccc(Oc2ccccc2)cc1 [4-phenoxyphenol, reference compound]
MIC [2, 12]: 64 µM (≈ 11.9 µg/mL)
MIC [2, 13]: 64 µM (≈ 11.9 µg/mL)
MIC [3, 14]: 250 µM (≈ 46.6 µg/mL)
MIC [3, 15]: 500 µM (≈ 93.1 µg/mL)
MIC [4, 16]: 32 µM (≈ 5.96 µg/mL)
MIC [4, 17]: 64 µM (≈ 11.9 µg/mL)
MIC [4, 18]: 125 µM (≈ 23.3 µg/mL)

Cc1ccc(C(C)C)cc1O [Carvacrol, reference compound]
MIC [2, 12]: 125 µM (≈ 18.8 µg/mL)
MIC [2, 13]: 250 µM (≈ 37.6 µg/mL)
MIC [3, 19]: 250 µM (≈ 37.6 µg/mL)
MIC [3, 20]: 500 µM (≈ 75.1 µg/mL)
MIC [4, 21]: 125 µM (≈ 18.8 µg/mL)
MIC [4, 22]: 250 µM (≈ 37.6 µg/mL)
MIC [4, 23]: 500 µM (≈ 75.1 µg/mL)

NNC(=O)c1ccncc1 [INH 1, Isoniazid, reference compound]
IC50 at 24 h [1]: > 1000 µM
MIC ([2]; 14 d incubation, precursors, Table 2, read-out: MIC Mtb. 331/88 14 d): 1 µM (≈ 0.137 µg/mL)
MIC ([2]; 21 d incubation, precursors, Table 2, read-out: MIC Mtb. 331/88 21 d): 1 µM (≈ 0.137 µg/mL)
MIC [2, 5]: 1 µM (≈ 0.137 µg/mL)
MIC [2, 6]: 1 µM (≈ 0.137 µg/mL)
MIC ([3]; 14 d incubation, precursors, Table 2, read-out: MIC M. avium 330/88 14 d): >250 µM
MIC ([3]; 21 d incubation, precursors, Table 2, read-out: MIC M. avium 330/88 21 d): >250 µM
MIC [3, 7]: > 250 µM
MIC [3, 8]: > 250 µM
MIC [4, 9]: 8 µM (≈ 1.1 µg/mL)
MIC [4, 16]: 4 µM (≈ 0.549 µg/mL)
MIC [4, 10]: 8 µM (≈ 1.1 µg/mL)
MIC [4, 17]: 8 µM (≈ 1.1 µg/mL)
MIC [4, 23]: 16 µM (≈ 2.19 µg/mL)
MIC [4, 18]: 8 µM (≈ 1.1 µg/mL)

Cc1ncc([N+](=O)[O-])n1CCO [Metronidazole, reference compound]
MIC [2, 12]: > 1000 µM
MIC [2, 13]: > 1000 µM
MIC [3, 14]: > 1000 µM
MIC [3, 15]: > 1000 µM
MIC [4, 16]: 1000 µM (≈ 171 µg/mL)
MIC [4, 17]: > 1000 µM
MIC [4, 18]: > 1000 µM

CC(=O)Nc1ccc(O)cc1 [Paracetamol, reference compound]
MIC [2, 12]: > 1000 µM
MIC [2, 13]: > 1000 µM
MIC [3, 14]: > 1000 µM
MIC [3, 15]: > 1000 µM

Oc1cccc2cccnc12 [Quinolin-8-ol, reference compound]
MIC [2, 12]: 8 µM (≈ 1.16 µg/mL)
MIC [2, 13]: 8 µM (≈ 1.16 µg/mL)
MIC [3, 19]: 64 µM (≈ 9.29 µg/mL)
MIC [3, 20]: 64 µM (≈ 9.29 µg/mL)
MIC [4, 21]: 16 µM (≈ 2.32 µg/mL)
MIC [4, 22]: 32 µM (≈ 4.65 µg/mL)
MIC [4, 23]: 32 µM (≈ 4.65 µg/mL)

Cc1ccc(C(C)C)c(O)c1 [Thymol, reference compound]
MIC [2, 12]: 64 µM (≈ 9.61 µg/mL)
MIC [2, 13]: 125 µM (≈ 18.8 µg/mL)
MIC [3, 14]: 250 µM (≈ 37.6 µg/mL)
MIC [3, 15]: 500 µM (≈ 75.1 µg/mL)
MIC [4, 21]: 125 µM (≈ 18.8 µg/mL)
MIC [4, 17]: 250 µM (≈ 37.6 µg/mL)
MIC [4, 18]: 500 µM (≈ 75.1 µg/mL)

Oc1cc(Cl)ccc1Oc1ccc(Cl)cc1Cl [Triclosan, 5-chloro-2-(2,4-dichlorophenoxy)phenol, reference compound]
MIC [2, 12]: 32 µM (≈ 9.27 µg/mL)
MIC [2, 13]: 32 µM (≈ 9.27 µg/mL)
MIC [3, 19]: 64 µM (≈ 18.5 µg/mL)
MIC [3, 20]: 64 µM (≈ 18.5 µg/mL)
MIC [4, 21]: 16 µM (≈ 4.63 µg/mL)
MIC [4, 22]: 32 µM (≈ 9.27 µg/mL)
MIC [4, 23]: 32 µM (≈ 9.27 µg/mL)
